Assay results as given in paper PMC3064895 (Cancer Chemotherapy and Pharmacology, 2010).
Where two headings read alike, the source gives them in different places.

Experiments:
[1] = Plasma pharmacokinetics at steady state of sorafenib; type: in vivo, patients with advanced cancer; details: for AUC, geometric mean (% CV): AUC(0–12), n = 14; for AUC, geometric mean (% CV) / AUCnorm, geometric mean (% CV) / C max, geometric mean (% CV) / C max,norm, geometric mean (% CV) / C trough, geometric mean (% CV) / C trough,norm, geometric mean (% CV) / t max, median (range): plasma, sorafenib 400 mg bid; for AUC ratio (90% CI) / C max ratio (90% CI) / C trough ratio (90% CI): ratio of day 1 of cycle 5 versus day 1 of cycle 2
[2] = cited from earlier work; for Patients with declines to <50 LVEF(%): Hutson et al.; for Mean change in LVEF(%): study by Chu et al.
[3] = QT/QTc interval on 12-lead Holter ECG; type: in vivo, patients with advanced cancer; details: 2 h post-dose; oral 400-mg single dose, positive control, 1 day before cycle 1
[4] = cited from earlier work

SMILES | AUC, geometric mean (% CV) ([1]; Day 1 of cycle 2) | AUC, geometric mean (% CV) ([1]; Day 1 of cycle 5) | AUCnorm, geometric mean (% CV) ([1]; Day 1 of cycle 2) | C max, geometric mean (% CV) ([1]; Day 1 of cycle 2) | C max,norm, geometric mean (% CV) ([1]; Day 1 of cycle 2) | C trough, geometric mean (% CV) ([1]; Day 1 of cycle 2) | C trough,norm, geometric mean (% CV) ([1]; Day 1 of cycle 2) | t max, median (range) ([1]; Day 1 of cycle 2) | AUCnorm, geometric mean (% CV) ([1]; Day 1 of cycle 5) | C max, geometric mean (% CV) ([1]; Day 1 of cycle 5) | C max,norm, geometric mean (% CV) ([1]; Day 1 of cycle 5) | C trough, geometric mean (% CV) ([1]; Day 1 of cycle 5) | C trough,norm, geometric mean (% CV) ([1]; Day 1 of cycle 5) | t max, median (range) ([1]; Day 1 of cycle 5) | AUC ratio (90% CI) [1] | C max ratio (90% CI) [1] | C trough ratio (90% CI) [1] | also measured
CCN(CC)CCNC(=O)c1c(C)[nH]c(/C=C2\C(=O)Nc3ccc(F)cc32)c1C [sunitinib] |  |  |  |  |  |  |  |  |  |  |  |  |  |  |  |  |  | Patients with declines to <50 LVEF(%) ([2]; after 1 cycle (6 weeks)): 12%; Patients with declines to <50 LVEF(%) ([2]; after 1 year): 10%; Mean change in LVEF(%) ([2]; after 2 cycles): −2.2 LVEF(%); Patients with declines to <50 LVEF(%) ([2]; after 2 years): 5%; Mean change in LVEF(%) ([2]; after 4 cycles): −5.1 LVEF(%); Incidence of ≥10 LVEF(%) reduction ([2]; observational study by Schmidinger et al.): 14%
NC(=O)c1cc(Oc2ccc(NC(=O)Nc3ccc(Cl)c(C(F)(F)F)c3)cc2)ccn1 [BAY 43-9007] | 2.0 (59.1) mg h/L | 1.1 (74.0) mg h/L | 0.4 (62.8) kg h/L | 0.2 (73.4) mg/L | 0.1 (75.2) kg/L | 0.2 (82.3) mg/L | <0.1 (85.0) kg/L | 1.00 (0–12.00) h | 0.2 (80.9) kg h/L | 0.1 (75.5) mg/L | <0.1 (78.2) kg/L | 0.1 (82.4) mg/L | <0.1 (84.8) kg/L | 2.00 (0–12.00) h | 0.57 (0.41–0.81) | 0.51 (0.38–0.68) | 0.52 (0.38–0.70) | 
COc1c(N2C[C@@H]3CCCN[C@@H]3C2)c(F)cc2c(=O)c(C(=O)O)cn(C3CC3)c12 [Moxifloxacin] |  |  |  |  |  |  |  |  |  |  |  |  |  |  |  |  |  | Mean (SD) change from baseline in QT [3]: 5.7 (24.3) ms; Mean (SD) change from baseline in QTcB [3]: 4.4 (12.9) ms; Mean (SD) change from baseline in QTcF [3]: 4.9 (13.7) ms; Increase in QT/QTc interval [4]: 5 to 10 ms

The next lines start with results.

AUC, geometric mean (% CV) ([1]; Day 1 of cycle 2) | AUC, geometric mean (% CV) ([1]; Day 1 of cycle 5) | AUCnorm, geometric mean (% CV) ([1]; Day 1 of cycle 2) | C max, geometric mean (% CV) ([1]; Day 1 of cycle 2) | C max,norm, geometric mean (% CV) ([1]; Day 1 of cycle 2) | C trough, geometric mean (% CV) ([1]; Day 1 of cycle 2) | C trough,norm, geometric mean (% CV) ([1]; Day 1 of cycle 2) | t max, median (range) ([1]; Day 1 of cycle 2) | AUCnorm, geometric mean (% CV) ([1]; Day 1 of cycle 5) | C max, geometric mean (% CV) ([1]; Day 1 of cycle 5) | C max,norm, geometric mean (% CV) ([1]; Day 1 of cycle 5) | C trough, geometric mean (% CV) ([1]; Day 1 of cycle 5) | C trough,norm, geometric mean (% CV) ([1]; Day 1 of cycle 5) | t max, median (range) ([1]; Day 1 of cycle 5) | AUC ratio (90% CI) [1] | C max ratio (90% CI) [1] | C trough ratio (90% CI) [1] | SMILES | also measured
2.8 (92.3) mg h/L | 1.4 (129.3) mg h/L | 0.5 (91.4) kg h/L | 0.3 (101.6) mg/L | 0.1 (99.6) kg/L | 0.3 (114.5) mg/L | 0.1 (113.5) kg/L | 2.00 (0–12.00) h | 0.3 (128.1) kg h/L | 0.2 (127.2) mg/L | <0.1 (123.6) kg/L | 0.1 (127.8) mg/L | <0.1 (124.7) kg/L | 2.00 (0–8.05) h | 0.50 (0.28–0.89) | 0.47 (0.28–0.80) | 0.49 (0.29–0.83) | NC(=O)c1cc(Oc2ccc(NC(=O)Nc3ccc(Cl)c(C(F)(F)F)c3)cc2)cc[n+]1[O-] [BAY 68-7769] | 
8.5 (58.3) mg h/L | 5.2 (98.7) mg h/L | 1.4 (59.6) kg h/L | 1.0 (66.8) mg/L | 0.2 (70.2) kg/L | 0.8 (81.1) mg/L | 0.1 (85.9) kg/L | 1.00 (0–12.00) h | 0.9 (103.2) kg h/L | 0.6 (96.9) mg/L | 0.1 (100.7) kg/L | 0.5 (109.4) mg/L | 0.1 (111.5) kg/L | 2.00 (0–8.12) h | 0.61 (0.41–0.92) | 0.58 (0.41–0.82) | 0.54 (0.36–0.81) | CNC(=O)c1cc(Oc2ccc(NC(=O)Nc3ccc(Cl)c(C(F)(F)F)c3)cc2)cc[n+]1[O-] [BAY 67-3472] | 
